Assay results taken from paper PMC10150365 (Journal of Medicinal Chemistry, 2023).

Legend:
[1] = biological target: T1, Transporter, Serotonin (5-Hydroxytryptamine) (SERT) (Homo sapiens, UniProt P31645); experiment: Cerep SafetyScreen-87; type: binding; conditions: n=2
T1 construct: purchased Eurofins Cerep/Panlabs SafetyScreen-87

Dopamine D2S = biological target: T2, Dopamine D2S (Homo sapiens, UniProt P14416); experiment: Cerep SafetyScreen-87; type: binding; conditions: n=2
T2 construct: purchased Eurofins Cerep/Panlabs SafetyScreen-87

[2] = biological target: T3, Glutamate, Metabotropic, mGlu5 (Homo sapiens, UniProt P41594); experiment: Cerep SafetyScreen-87; type: binding; conditions: n=2
T3 construct: purchased Eurofins Cerep/Panlabs SafetyScreen-87

Opiate δ1 (OP1, DOP) = biological target: T4, Opiate δ1 (OP1, DOP) (Homo sapiens, UniProt P41143); experiment: Cerep SafetyScreen-87; type: binding; conditions: n=2
T4 construct: purchased Eurofins Cerep/Panlabs SafetyScreen-87

Adrenergic α1A = biological target: T5, Adrenergic α1A (Rattus norvegicus, UniProt P43140); experiment: Cerep SafetyScreen-87; type: binding; conditions: n=2
T5 construct: purchased Eurofins Cerep/Panlabs SafetyScreen-87

[3] = biological target: T6, Cholecystokinin CCK1 (CCKA) (Homo sapiens, UniProt P32238); experiment: Cerep SafetyScreen-87; type: binding; conditions: n=2
T6 construct: purchased Eurofins Cerep/Panlabs SafetyScreen-87

Opiate µ (OP3, MOP) = biological target: T7, Opiate µ (OP3, MOP) (Homo sapiens, UniProt P35372); experiment: Cerep SafetyScreen-87; type: binding; conditions: n=2
T7 construct: purchased Eurofins Cerep/Panlabs SafetyScreen-87

[4] = biological target: T8, Serotonin (5-Hydroxytryptamine) 5-HT1A (Homo sapiens, UniProt P08908); experiment: Cerep SafetyScreen-87; type: binding; conditions: n=2
T8 construct: purchased Eurofins Cerep/Panlabs SafetyScreen-87

Cholecystokinin (CCKB) = biological target: T9, Cholecystokinin (CCKB) (Homo sapiens, UniProt P32239); experiment: Cerep SafetyScreen-87; type: binding; conditions: n=2
T9 construct: purchased Eurofins Cerep/Panlabs SafetyScreen-87

Adrenergic β2 = biological target: T10, Adrenergic β2 (Homo sapiens, UniProt P07550); experiment: Cerep SafetyScreen-87; type: binding; conditions: n=2
T10 construct: purchased Eurofins Cerep/Panlabs SafetyScreen-87

Chemokine CCR1 = biological target: T11, Chemokine CCR1 (Homo sapiens, UniProt P32246); experiment: Cerep SafetyScreen-87; type: binding; conditions: n=2
T11 construct: purchased Eurofins Cerep/Panlabs SafetyScreen-87

Adrenergic α1D = biological target: T12, Adrenergic α1D (Homo sapiens, UniProt P25100); experiment: Cerep SafetyScreen-87; type: binding; conditions: n=2
T12 construct: purchased Eurofins Cerep/Panlabs SafetyScreen-87

Adenosine A1 = biological target: T13, Adenosine A1 (Homo sapiens, UniProt P30542); experiment: Cerep SafetyScreen-87; type: binding; conditions: n=2
T13 construct: purchased Eurofins Cerep/Panlabs SafetyScreen-87

Chemokine CXCR2 (IL-8RB) = biological target: T14, Chemokine CXCR2 (IL-8RB) (Homo sapiens, UniProt P25025); experiment: Cerep SafetyScreen-87; type: binding; conditions: n=2
T14 construct: purchased Eurofins Cerep/Panlabs SafetyScreen-87

Opiate K (OP2, KOP) = biological target: T15, Opiate K (OP2, KOP) (Homo sapiens, UniProt P41145); experiment: Cerep SafetyScreen-87; type: binding; conditions: n=2
T15 construct: purchased Eurofins Cerep/Panlabs SafetyScreen-87

Adenosine A2A = Adenosine A2A (Homo sapiens, UniProt P29274); type: cell-based; design: Cerep (contract assay) test=2527; conditions: functional assay, antagonist mode; read-out: adenosine A2A antagonism IC50
[5] = biological target: T16, Peptidase, CTSG (Cathepsin G) (Homo sapiens, UniProt P08311); experiment: Cerep SafetyScreen-87; type: biochemical; conditions: n=2
T16 construct: purchased Eurofins Cerep/Panlabs SafetyScreen-87

Estrogen ERα = biological target: T17, Estrogen ERα (Homo sapiens, UniProt P03372); experiment: Cerep SafetyScreen-87; type: binding; conditions: n=2
T17 construct: purchased Eurofins Cerep/Panlabs SafetyScreen-87

Monoamine Oxidase MAO-A = biological target: T18, Monoamine Oxidase MAO-A (Homo sapiens, UniProt P21397); experiment: Cerep SafetyScreen-87; type: biochemical; conditions: n=2
T18 construct: purchased Eurofins Cerep/Panlabs SafetyScreen-87

Progesterone PR-B = biological target: T19, Progesterone PR-B (Homo sapiens, UniProt P06401); experiment: Cerep SafetyScreen-87; type: binding; conditions: n=2
T19 construct: purchased Eurofins Cerep/Panlabs SafetyScreen-87

Muscarinic M3 = biological target: T20, Muscarinic M3 (Homo sapiens, UniProt P20309); experiment: Cerep SafetyScreen-87; type: binding; conditions: n=2
T20 construct: purchased Eurofins Cerep/Panlabs SafetyScreen-87

[6] = biological target: T21, Transporter, Dopamine (DAT) (Homo sapiens, UniProt Q01959); experiment: Cerep SafetyScreen-87; type: binding; conditions: n=2
T21 construct: purchased Eurofins Cerep/Panlabs SafetyScreen-87

Glutamate, NMDA, Glycine = Glutamate, NMDA, Glycine (Rattus norvegicus, UniProt P35439); experiment: Cerep SafetyScreen-87; type: binding; conditions: n=2
Melanocortin MC4 = biological target: T22, Melanocortin MC4 (Homo sapiens, UniProt P32245); experiment: Cerep SafetyScreen-87; type: binding; conditions: n=2
T22 construct: purchased Eurofins Cerep/Panlabs SafetyScreen-87

[7] = biological target: T23, Protein Tyrosine Kinase, Insulin Receptor (Homo sapiens, UniProt P06213); experiment: Cerep SafetyScreen-87; type: biochemical; conditions: n=2
T23 construct: purchased Eurofins Cerep/Panlabs SafetyScreen-87

[8] = biological target: T24, Cholinesterase, Acetyl, ACES (Homo sapiens, UniProt P22303); experiment: Cerep SafetyScreen-87; type: biochemical; conditions: n=2
T24 construct: purchased Eurofins Cerep/Panlabs SafetyScreen-87

[9] = biological target: T25, Serotonin (5-Hydroxytryptamine) 5-HT2C (Homo sapiens, UniProt P28335); experiment: Cerep SafetyScreen-87; type: binding; conditions: n=2
T25 construct: purchased Eurofins Cerep/Panlabs SafetyScreen-87

[10] = biological target: T26, Serotonin (5-Hydroxytryptamine) 5-HT3 (Homo sapiens, UniProt P46098); experiment: Cerep SafetyScreen-87; type: binding; conditions: n=2
T26 construct: purchased Eurofins Cerep/Panlabs SafetyScreen-87

Cannabinoid CB2 = biological target: T27, Cannabinoid CB2 (Homo sapiens, UniProt P34972); experiment: Cerep SafetyScreen-87; type: binding; conditions: n=2
T27 construct: purchased Eurofins Cerep/Panlabs SafetyScreen-87

Dopamine D1 = biological target: T28, Dopamine D1 (Homo sapiens, UniProt P21728); experiment: Cerep SafetyScreen-87; type: binding; conditions: n=2
T28 construct: purchased Eurofins Cerep/Panlabs SafetyScreen-87

[11] = biological target: T29, Peptidase, Angiotensin Converting Enzyme (Oryctolagus cuniculus, UniProt P12822); experiment: Cerep SafetyScreen-87; type: biochemical, rabbit; conditions: n=2
T29 construct: purchased Eurofins Cerep/Panlabs SafetyScreen-87

GABAB1A = biological target: T30, GABAB1A (Homo sapiens, UniProt Q9UBS5); experiment: Cerep SafetyScreen-87; type: binding; conditions: n=2
T30 construct: purchased Eurofins Cerep/Panlabs SafetyScreen-87

Endothelin ETA = biological target: T31, Endothelin ETA (Homo sapiens, UniProt P25101); experiment: Cerep SafetyScreen-87; type: binding; conditions: n=2
T31 construct: purchased Eurofins Cerep/Panlabs SafetyScreen-87

Glucocorticoid = biological target: T32, Glucocorticoid (Homo sapiens, UniProt P04150); experiment: Cerep SafetyScreen-87; type: binding; conditions: n=2
T32 construct: purchased Eurofins Cerep/Panlabs SafetyScreen-87

Muscarinic M1 = biological target: T33, Muscarinic M1 (Homo sapiens, UniProt P11229); experiment: Cerep SafetyScreen-87; type: binding; conditions: n=2
T33 construct: purchased Eurofins Cerep/Panlabs SafetyScreen-87

Angiotensin AT1 = biological target: T34, Angiotensin AT1 (Homo sapiens, UniProt P30556); experiment: Cerep SafetyScreen-87; type: binding; conditions: n=2
T34 construct: purchased Eurofins Cerep/Panlabs SafetyScreen-87

[12] = biological target: T35, Protein Tyrosine Kinase, LCK (Homo sapiens, UniProt P06239); experiment: Cerep SafetyScreen-87; type: biochemical; conditions: n=2
T35 construct: purchased Eurofins Cerep/Panlabs SafetyScreen-87

Adrenergic β1 = biological target: T36, Adrenergic β1 (Homo sapiens, UniProt P08588); experiment: Cerep SafetyScreen-87; type: binding; conditions: n=2
T36 construct: purchased Eurofins Cerep/Panlabs SafetyScreen-87

Tachykinin NK1 = biological target: T37, Tachykinin NK1 (Homo sapiens, UniProt P25103); experiment: Cerep SafetyScreen-87; type: binding; conditions: n=2
T37 construct: purchased Eurofins Cerep/Panlabs SafetyScreen-87

[13] = biological target: T38, Serotonin (5-Hydroxytryptamine) 5-HT1B (Homo sapiens, UniProt P28222); experiment: Cerep SafetyScreen-87; type: binding; conditions: n=2
T38 construct: purchased Eurofins Cerep/Panlabs SafetyScreen-87

Melanocortin MC1 = biological target: T39, Melanocortin MC1 (Homo sapiens, UniProt Q01726); experiment: Cerep SafetyScreen-87; type: binding; conditions: n=2
T39 construct: purchased Eurofins Cerep/Panlabs SafetyScreen-87

T5 sequence (P43140 whole entry): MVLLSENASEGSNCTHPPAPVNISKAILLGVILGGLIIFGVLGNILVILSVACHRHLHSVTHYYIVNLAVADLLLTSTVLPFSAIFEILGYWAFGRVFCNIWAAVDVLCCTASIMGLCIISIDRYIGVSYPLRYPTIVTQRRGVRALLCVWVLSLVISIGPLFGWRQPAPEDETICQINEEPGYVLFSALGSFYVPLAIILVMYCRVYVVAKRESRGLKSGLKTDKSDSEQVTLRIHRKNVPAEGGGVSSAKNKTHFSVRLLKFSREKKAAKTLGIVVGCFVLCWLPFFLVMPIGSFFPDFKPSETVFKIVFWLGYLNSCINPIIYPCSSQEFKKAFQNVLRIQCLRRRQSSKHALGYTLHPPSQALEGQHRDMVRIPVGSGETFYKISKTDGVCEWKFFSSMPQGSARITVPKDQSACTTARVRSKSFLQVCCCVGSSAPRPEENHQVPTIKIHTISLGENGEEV
T21 sequence (Q01959 whole entry): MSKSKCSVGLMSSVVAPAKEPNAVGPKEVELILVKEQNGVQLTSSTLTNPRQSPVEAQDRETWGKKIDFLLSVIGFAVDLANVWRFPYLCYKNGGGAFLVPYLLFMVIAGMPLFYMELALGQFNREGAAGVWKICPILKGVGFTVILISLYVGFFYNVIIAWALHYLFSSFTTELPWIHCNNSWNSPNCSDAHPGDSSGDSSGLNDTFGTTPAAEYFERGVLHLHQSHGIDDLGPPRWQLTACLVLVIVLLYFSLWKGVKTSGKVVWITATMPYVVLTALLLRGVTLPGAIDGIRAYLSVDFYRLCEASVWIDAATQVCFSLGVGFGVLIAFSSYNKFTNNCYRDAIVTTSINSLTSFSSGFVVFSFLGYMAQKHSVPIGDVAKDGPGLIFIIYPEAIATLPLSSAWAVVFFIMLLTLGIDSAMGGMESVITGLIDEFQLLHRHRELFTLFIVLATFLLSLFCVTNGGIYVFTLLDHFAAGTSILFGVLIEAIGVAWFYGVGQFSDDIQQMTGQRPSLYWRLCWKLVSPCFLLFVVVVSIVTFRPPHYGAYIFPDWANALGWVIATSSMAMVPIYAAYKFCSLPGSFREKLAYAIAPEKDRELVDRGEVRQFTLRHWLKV
T14 sequence (P25025 whole entry): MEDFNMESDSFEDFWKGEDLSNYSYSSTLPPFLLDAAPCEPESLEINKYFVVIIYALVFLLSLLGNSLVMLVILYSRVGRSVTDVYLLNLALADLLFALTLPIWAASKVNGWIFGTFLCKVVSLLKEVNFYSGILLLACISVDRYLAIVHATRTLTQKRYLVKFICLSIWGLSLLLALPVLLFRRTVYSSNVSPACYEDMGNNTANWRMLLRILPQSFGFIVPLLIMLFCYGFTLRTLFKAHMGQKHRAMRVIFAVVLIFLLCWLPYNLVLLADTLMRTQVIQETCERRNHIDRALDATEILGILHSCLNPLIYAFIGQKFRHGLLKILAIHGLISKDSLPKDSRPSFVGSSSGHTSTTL
T29 sequence (P12822 34-1310): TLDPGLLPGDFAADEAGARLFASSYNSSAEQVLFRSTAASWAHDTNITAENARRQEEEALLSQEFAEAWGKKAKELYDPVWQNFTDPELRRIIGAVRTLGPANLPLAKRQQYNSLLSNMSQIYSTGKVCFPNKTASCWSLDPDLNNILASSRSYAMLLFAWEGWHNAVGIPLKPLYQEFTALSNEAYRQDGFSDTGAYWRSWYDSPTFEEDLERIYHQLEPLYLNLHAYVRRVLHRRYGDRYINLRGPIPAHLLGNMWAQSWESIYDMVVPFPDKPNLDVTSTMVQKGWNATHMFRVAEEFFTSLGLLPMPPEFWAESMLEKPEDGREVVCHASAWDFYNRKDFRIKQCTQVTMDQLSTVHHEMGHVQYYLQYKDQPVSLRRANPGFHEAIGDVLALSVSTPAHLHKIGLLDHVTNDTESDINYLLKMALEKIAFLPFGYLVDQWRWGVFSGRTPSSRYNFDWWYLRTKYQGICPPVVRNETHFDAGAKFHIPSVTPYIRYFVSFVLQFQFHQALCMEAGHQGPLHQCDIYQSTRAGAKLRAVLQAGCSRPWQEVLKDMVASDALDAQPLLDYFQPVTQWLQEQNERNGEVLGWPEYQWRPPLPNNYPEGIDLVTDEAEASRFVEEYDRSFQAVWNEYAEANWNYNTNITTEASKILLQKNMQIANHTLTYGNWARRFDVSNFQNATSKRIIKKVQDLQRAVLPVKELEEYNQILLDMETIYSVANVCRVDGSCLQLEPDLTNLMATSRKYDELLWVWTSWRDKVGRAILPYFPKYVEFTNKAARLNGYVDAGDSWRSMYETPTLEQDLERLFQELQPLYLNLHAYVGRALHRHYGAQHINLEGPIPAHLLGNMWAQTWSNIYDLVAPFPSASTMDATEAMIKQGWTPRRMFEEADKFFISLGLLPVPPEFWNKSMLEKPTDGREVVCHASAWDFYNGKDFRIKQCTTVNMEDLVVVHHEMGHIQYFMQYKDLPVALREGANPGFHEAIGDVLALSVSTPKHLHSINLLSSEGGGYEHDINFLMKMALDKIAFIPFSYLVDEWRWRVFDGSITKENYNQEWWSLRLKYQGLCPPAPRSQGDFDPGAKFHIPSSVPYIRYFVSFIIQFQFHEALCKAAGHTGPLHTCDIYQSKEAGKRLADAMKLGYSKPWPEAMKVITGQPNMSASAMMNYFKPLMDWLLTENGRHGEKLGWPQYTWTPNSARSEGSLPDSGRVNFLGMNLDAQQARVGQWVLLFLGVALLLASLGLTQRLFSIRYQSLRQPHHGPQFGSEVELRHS
T12 sequence (P25100 whole entry): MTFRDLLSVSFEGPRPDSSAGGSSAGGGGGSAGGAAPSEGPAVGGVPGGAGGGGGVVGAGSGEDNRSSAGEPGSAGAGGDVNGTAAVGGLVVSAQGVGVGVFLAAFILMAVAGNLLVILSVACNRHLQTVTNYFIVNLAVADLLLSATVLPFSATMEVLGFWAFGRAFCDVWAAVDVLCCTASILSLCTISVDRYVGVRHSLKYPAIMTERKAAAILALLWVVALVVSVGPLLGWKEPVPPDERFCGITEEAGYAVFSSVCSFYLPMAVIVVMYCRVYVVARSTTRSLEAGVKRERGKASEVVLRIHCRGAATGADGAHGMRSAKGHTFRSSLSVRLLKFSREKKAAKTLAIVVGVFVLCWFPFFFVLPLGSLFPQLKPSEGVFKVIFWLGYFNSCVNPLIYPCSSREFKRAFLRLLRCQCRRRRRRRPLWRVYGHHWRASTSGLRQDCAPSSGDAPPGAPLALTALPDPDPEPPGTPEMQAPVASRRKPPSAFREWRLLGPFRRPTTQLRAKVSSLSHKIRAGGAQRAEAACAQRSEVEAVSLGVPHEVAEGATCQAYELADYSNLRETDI
Adenosine A2A, sequence (P29274 whole entry): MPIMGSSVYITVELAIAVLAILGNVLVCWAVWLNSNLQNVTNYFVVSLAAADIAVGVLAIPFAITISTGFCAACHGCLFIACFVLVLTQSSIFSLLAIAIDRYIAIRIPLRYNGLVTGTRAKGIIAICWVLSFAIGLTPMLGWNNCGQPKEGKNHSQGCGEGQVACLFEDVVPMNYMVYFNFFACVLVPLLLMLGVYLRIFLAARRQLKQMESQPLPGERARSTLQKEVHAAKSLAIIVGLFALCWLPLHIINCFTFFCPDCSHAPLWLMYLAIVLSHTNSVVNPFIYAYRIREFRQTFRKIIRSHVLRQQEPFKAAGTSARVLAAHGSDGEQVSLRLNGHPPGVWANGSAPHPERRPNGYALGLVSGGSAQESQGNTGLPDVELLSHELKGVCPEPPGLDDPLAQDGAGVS
T18 sequence (P21397 whole entry): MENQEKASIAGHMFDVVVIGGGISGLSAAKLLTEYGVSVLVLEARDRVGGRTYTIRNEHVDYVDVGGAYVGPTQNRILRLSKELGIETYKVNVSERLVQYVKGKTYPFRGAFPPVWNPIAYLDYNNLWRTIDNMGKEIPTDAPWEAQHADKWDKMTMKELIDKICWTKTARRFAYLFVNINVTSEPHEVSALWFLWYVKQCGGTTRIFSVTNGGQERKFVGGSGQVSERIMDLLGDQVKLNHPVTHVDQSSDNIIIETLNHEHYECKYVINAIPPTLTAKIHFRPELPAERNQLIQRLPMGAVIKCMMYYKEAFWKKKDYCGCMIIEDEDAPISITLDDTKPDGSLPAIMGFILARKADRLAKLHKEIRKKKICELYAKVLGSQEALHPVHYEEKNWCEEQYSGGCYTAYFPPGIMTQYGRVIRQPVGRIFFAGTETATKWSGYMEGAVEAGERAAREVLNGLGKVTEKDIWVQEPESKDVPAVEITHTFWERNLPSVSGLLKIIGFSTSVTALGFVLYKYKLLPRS
T24 sequence (P22303 32-614): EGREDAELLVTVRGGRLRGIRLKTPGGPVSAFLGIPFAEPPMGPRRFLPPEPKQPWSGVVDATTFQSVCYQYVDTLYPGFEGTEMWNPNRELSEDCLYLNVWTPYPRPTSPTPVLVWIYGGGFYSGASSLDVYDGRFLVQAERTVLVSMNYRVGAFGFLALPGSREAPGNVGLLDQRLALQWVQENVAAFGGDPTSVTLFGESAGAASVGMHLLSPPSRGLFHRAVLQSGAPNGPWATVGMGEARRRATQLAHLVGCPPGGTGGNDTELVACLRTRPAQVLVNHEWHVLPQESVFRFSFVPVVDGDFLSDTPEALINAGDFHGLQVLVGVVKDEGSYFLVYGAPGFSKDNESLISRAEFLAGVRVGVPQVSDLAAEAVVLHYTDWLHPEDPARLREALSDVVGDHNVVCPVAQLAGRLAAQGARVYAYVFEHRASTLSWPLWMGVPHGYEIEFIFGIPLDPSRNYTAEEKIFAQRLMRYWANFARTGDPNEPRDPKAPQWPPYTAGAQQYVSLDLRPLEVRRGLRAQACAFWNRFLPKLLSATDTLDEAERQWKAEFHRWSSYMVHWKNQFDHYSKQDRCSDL

CCN1CCN(Cc2ccc3cc(C(=O)Nc4cc(NC(=O)c5ccc6c(c5)OCCO6)ccc4F)ccc3n2)CC1 [Compound 22, N-(5-(2,3-Dihydrobenzo[b][1,4]dioxine-6-carboxamido)-2-fluorophenyl)-2-((4-ethylpiperazin-1-yl)methyl)quinoline-6-carboxamide]
inhibition at 10 µM [1]: 25%
inhibition at 10 µM (Dopamine D2S): 5%
inhibition at 10 µM [2]: -2%
inhibition at 10 µM (Opiate δ1 (OP1, DOP)): 9%
inhibition at 10 µM (Adrenergic α1A): 38%
inhibition at 10 µM [3]: 9%
inhibition at 10 µM (Opiate µ (OP3, MOP)): 44%
inhibition at 10 µM [4]: 4%
inhibition at 10 µM (Cholecystokinin (CCKB)): -4%
inhibition at 10 µM (Adrenergic β2): 12%
inhibition at 10 µM (Chemokine CCR1): 2%
inhibition at 10 µM (Adrenergic α1D): 25%
inhibition at 10 µM (Adenosine A1): 11%
inhibition at 10 µM (Chemokine CXCR2 (IL-8RB)): 7%
inhibition at 10 µM (Opiate K (OP2, KOP)): 51%
IC50 (Adenosine A2A): 2000 nM
inhibition at 10 µM [5]: 1%
inhibition at 10 µM (Estrogen ERα): -1%
inhibition at 10 µM (Monoamine Oxidase MAO-A): 77%
inhibition at 10 µM (Progesterone PR-B): 5%
inhibition at 10 µM (Muscarinic M3): 30%
inhibition at 10 µM [6]: 38%
inhibition at 10 µM (Glutamate, NMDA, Glycine): -24%
inhibition at 10 µM (Melanocortin MC4): 2%
inhibition at 10 µM [7]: -7%
inhibition at 10 µM [8]: 2%
inhibition at 10 µM [9]: 55%
inhibition at 10 µM [10]: -10%
inhibition at 10 µM (Cannabinoid CB2): 79%
inhibition at 10 µM (Dopamine D1): 41%
inhibition at 10 µM [11]: 13%
inhibition at 10 µM (GABAB1A): 4%
inhibition at 10 µM (Endothelin ETA): -2%
inhibition at 10 µM (Glucocorticoid): 9%
inhibition at 10 µM (Muscarinic M1): 43%
inhibition at 10 µM (Angiotensin AT1): 1%
inhibition at 10 µM [12]: -8%
inhibition at 10 µM (Adrenergic β1): 4%
inhibition at 10 µM (Tachykinin NK1): 14%
inhibition at 10 µM [13]: 43%
inhibition at 10 µM (Melanocortin MC1): -3%
